Assay [1] can be described thus: Induction of dissociation of KV1.1 T1 domain/rat Kvbeta2 complex by solid phase binding assay.
Assay [2] can be described thus: Induction of dissociation of KV1.1 T1 domain/rat Kvbeta2 I211R mutant complex at 2 mM by solid phase binding assay.
Assay [3] addresses Voltage-gated potassium channel subunit beta-2 (Rattus norvegicus) (UniProt P62483). Nature of the assay: Binding affinity to Kvbeta2 assessed as reduction of fluorescence by NADPH fluorescence spectrum based assay. Details: scale not given: the % may be the effect or the level left.
Assay [4] addresses Potassium voltage-gated channel subfamily A member 1 (Rattus norvegicus) (UniProt P10499). Nature of the assay: Activation of KV1.1 expressed in Xenopus laevis oocytes coexpressing Kvbeta1 assessed as increase in channel current at 500 uM by electrophysiology method. The settings on record: Oocyte.
Assay [5] shares this target. Nature of the assay: Activation of KV1.1 expressed in Xenopus laevis oocytes assessed as increase in steady state current normalized to initial inactivating current by electrophysiology method. Particulars: Oocyte.
For assay [6] the target is unchanged. Nature of the assay: Activation of KV1.1 expressed in Xenopus laevis oocytes coexpressing Kvbeta1 assessed as increase in steady state current normalized to initial inactivating current by electrophysiology method.
The target is the same in assay [7]. Nature of the assay: Activation of KV1.1 expressed in Xenopus laevis oocytes coexpressing Kvbeta1 assessed as increase in steady state current normalized to initial inactivating current at 500 uM by electrophysiology method. The settings on record: Oocyte.
For assay [8] the target is unchanged. Nature of the assay: Activation of KV1.1 expressed in Xenopus laevis oocytes coexpressing Kvbeta1 W155A mutant assessed as increase in steady state current normalized to initial inactivating current at 500 uM by electrophysiology method. Particulars: Oocyte.

Structures are written as SMILES. Activity calls are given as the source filed them. The rule behind the calls is not given here.

One compound from ChEMBL document CHEMBL1221217 (Nat Chem Biol, 2008) can be followed below.

Chain of Potassium voltage-gated channel subfamily A member 1 (Rattus norvegicus) (P10499 whole entry, looked up): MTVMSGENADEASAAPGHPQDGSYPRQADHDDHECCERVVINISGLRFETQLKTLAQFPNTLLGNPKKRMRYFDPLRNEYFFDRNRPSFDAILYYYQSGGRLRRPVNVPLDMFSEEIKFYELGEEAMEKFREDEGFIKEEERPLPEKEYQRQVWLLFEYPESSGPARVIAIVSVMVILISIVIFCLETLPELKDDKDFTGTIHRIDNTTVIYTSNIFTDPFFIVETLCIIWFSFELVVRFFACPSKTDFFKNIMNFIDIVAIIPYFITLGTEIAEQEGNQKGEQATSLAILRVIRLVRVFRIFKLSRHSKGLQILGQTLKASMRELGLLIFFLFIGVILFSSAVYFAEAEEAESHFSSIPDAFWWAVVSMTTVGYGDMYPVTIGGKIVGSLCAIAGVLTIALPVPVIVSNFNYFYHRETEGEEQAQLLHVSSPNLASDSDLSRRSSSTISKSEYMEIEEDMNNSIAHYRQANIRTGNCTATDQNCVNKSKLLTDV
Chain of Voltage-gated potassium channel subunit beta-2 (Rattus norvegicus) (P62483 whole entry, looked up): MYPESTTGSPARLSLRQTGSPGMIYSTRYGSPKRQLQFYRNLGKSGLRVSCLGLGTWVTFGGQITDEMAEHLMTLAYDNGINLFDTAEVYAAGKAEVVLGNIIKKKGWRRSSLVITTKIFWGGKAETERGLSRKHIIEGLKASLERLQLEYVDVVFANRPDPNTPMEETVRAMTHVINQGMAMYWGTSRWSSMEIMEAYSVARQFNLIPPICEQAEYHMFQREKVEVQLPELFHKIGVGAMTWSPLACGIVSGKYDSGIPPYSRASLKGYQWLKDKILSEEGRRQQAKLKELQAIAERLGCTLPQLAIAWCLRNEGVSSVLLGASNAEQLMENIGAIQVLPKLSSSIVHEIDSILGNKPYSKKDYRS

In the case of `C[C@]12CCC(=O)C=C1CC[C@@H]1[C@@H]2C(=O)C[C@@]2(C)[C@H]1CC[C@]2(O)C(=O)CO` [CORTISONE], the concentration for a half-maximal effect (EC50) in assay [1] was found to be 68 µM; in assay [6], 46 µM. Also, the outcome in assay [2] was inactive. In addition, the Activity turned out to be 21% in assay [3], 4.5% in assay [5], 84% in assay [7] and 93% in assay [8]. Besides, the outcome in assay [4] was Active.

In general, EC50 refers to the midpoint of the concentration-response curve.
